# From patent publication US20220042962A1, “METHOD FOR […] SITE-[…] WATER QUALITY […] OF RIVER BASIN” (DALIAN UNIVERSITY OF TECHNOLOGY, priority 2020, published 2022)
# Test system: aquatic species in Liaohe River Basin
# Test: Derivation of site-specific water quality criterion (species sensitivity distribution and toxicity sorting)
substance,measurement,setting,value
ammonia nitrogen,water quality criterion value derived by the toxicity sorting method,"Liaohe River Basin, four most sensitive resident sensitive and endemic species",15.91 mg/L
same,water quality criterion value derived by the species sensitivity method,"Liaohe River Basin, safety coefficient 2",13.47 mg/L
same,water quality criterion value (validation value),"Liaohe River Basin, weights 0.3 and 0.7, pH=7.0 and temperature=20° C.",15.18 mg/L
same,X value at Y=0.05 transformed to a base-10 exponent,"logistic SSD model, before division by safety coefficient 2",26.93 mg/L
same,X (log10 toxicity value) at Y=0.05 on the logistic SSD fitting curve,"logistic model, cumulative probability Y=0.05, pH=7.0, temperature=20° C.",1.4302
